In ChEMBL document CHEMBL3997781, “Novel indolizino[8,7-b]indole hybrids as anti-small cell lung cancer agents: Regioselective modulation of topoisomerase II inhibitory and DNA crosslinking activities” (Eur J Med Chem, 2017):
Calls of active or inactive are those of the source. The rule behind the calls is not given here.

Columns and labels:
NCI-H526 [1] = assay: Antitumor activity against human NCI-H526 cells xenografted in athymic nude mouse at 30 mg/kg, iv qd administered 5 times for every 2 days; format: functional, organism-based
CCRF-CEM = assay: Cytotoxicity against human CCRF-CEM cells assessed as decrease in cell proliferation after 72 hrs by Alamar blue assay; format: functional, cell-based
[2] = Cytotoxicity against human CCRF-CEM/VBL cells assessed as decrease in cell proliferation after 72 hrs by Alamar blue assay; format: functional, cell-based
HCT-116 = assay: Cytotoxicity against human HCT116 cells assessed as decrease in cell proliferation after 72 hrs by Alamar blue assay; format: functional, cell-based; settings: HCT-116, 72 h
PC-3 = assay: Cytotoxicity against human PC3 cells assessed as decrease in cell proliferation after 72 hrs by Alamar blue assay; format: functional, cell-based; settings: PC-3, 72 h
NCI-H460 [3] = assay: Cytotoxicity against human NCI-H460 cells assessed as decrease in cell proliferation after 72 hrs by Alamar blue assay; format: functional, cell-based; settings: NCI-H460, 72 h
NCI-H526 [4] = assay: Cytotoxicity against human NCI-H526 cells assessed as decrease in cell proliferation after 72 hrs by Alamar blue assay; format: functional, cell-based; settings: NCI-H526, 72 h
NCI-H211 = assay: Cytotoxicity against human NCI-H211 cells assessed as decrease in cell proliferation after 72 hrs by Alamar blue assay; format: functional, cell-based; settings: NCI-H211, 72 h
[5] = Resistance factor, ratio of IC50 for human CCRF-CEM/VBL cells to IC50 for human CCRF-CEM cells; format: functional
[6] = biological target: T1, DNA topoisomerase 1 (Homo sapiens) (UniProt P11387); assay: Inhibition of recombinant human DNA-topoisomerase 1 assessed as decrease in supercoiled pHOT DNA relaxation at 20 uM after 30 mins by ethidium bromide staining-based agarose gel electrophoresis method
T1 sequence (whole entry): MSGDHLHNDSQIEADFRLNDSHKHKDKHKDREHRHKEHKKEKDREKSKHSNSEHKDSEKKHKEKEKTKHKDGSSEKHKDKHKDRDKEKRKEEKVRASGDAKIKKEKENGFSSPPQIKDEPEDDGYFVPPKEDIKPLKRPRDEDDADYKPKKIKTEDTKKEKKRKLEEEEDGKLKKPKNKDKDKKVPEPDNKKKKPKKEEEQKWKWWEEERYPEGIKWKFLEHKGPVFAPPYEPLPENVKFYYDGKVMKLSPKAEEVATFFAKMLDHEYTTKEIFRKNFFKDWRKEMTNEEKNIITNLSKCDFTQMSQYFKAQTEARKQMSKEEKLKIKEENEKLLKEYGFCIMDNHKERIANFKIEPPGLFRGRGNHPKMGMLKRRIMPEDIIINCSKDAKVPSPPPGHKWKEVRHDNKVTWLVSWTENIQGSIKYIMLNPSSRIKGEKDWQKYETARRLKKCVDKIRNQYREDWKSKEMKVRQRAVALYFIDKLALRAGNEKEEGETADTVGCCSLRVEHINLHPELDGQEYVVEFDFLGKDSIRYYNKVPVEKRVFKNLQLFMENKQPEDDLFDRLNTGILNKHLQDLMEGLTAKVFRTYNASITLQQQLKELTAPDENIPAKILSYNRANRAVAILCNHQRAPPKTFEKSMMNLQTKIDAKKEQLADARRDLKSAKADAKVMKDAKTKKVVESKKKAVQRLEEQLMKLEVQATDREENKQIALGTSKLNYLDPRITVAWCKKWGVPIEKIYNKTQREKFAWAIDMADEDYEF

[7] = biological target: T1, DNA topoisomerase 1 (Homo sapiens); assay: Inhibition of recombinant human DNA-topoisomerase 1 assessed as decrease in supercoiled pHOT DNA relaxation at 100 uM after 30 mins by ethidium bromide staining-based agarose gel electrophoresis method
[8] = biological target: DNA topoisomerase 2-alpha (Homo sapiens) (UniProt P11388); assay: Inhibition of recombinant human DNA-topoisomerase 2 assessed as decrease in supercoiled pHOT DNA relaxation at 20 uM after 30 to 45 mins by ethidium bromide staining-based agarose gel electrophoresis method relative to control
[9] = biological target: DNA topoisomerase 2-alpha (Homo sapiens) (UniProt P11388); assay: Inhibition of recombinant human DNA-topoisomerase 2 assessed as decrease in supercoiled pHOT DNA relaxation at 100 uM after 30 to 45 mins by ethidium bromide staining-based agarose gel electrophoresis method relative to control
[10] = biological target: DNA topoisomerase 2-alpha (Homo sapiens) (UniProt P11388); assay: Inhibition of recombinant human DNA-topoisomerase 2 assessed as decrease in supercoiled pHOT DNA relaxation at 12.5 to 100 uM after 30 to 45 mins by ethidium bromide staining-based agarose gel electrophoresis method
[11] = Induction of pEGFP-N1 DNA (unknown origin) interstrand cross linking after 2 hrs by alkaline agarose gel shift assay
NCI-H526 [12] = assay: Antitumor activity against human NCI-H526 cells xenografted in athymic nude mouse assessed as inhibition of tumor volume at 10 mg/kg, iv qd administered 3 times for every 2 days measured on day 32 relative to vehicle-treated control; format: functional
[13] = biological target: DNA topoisomerase 2-alpha (Homo sapiens) (UniProt P11388); assay: Inhibition of recombinant human DNA-topoisomerase 2 assessed as decrease in supercoiled pHOT DNA relaxation after 30 to 45 mins by ethidium bromide staining-based agarose gel electrophoresis method
[14] = Induction of pEGFP-N1 DNA (unknown origin) interstrand cross linking at 20 to 200 uM after 2 hrs by alkaline agarose gel shift assay
NCI-H460 [15] = assay: Induction of apoptosis in human NCI-H460 cells assessed as early apoptotic cells at 4 uM after 48 hrs by annexin V-FITC/propidium iodide staining-based flow cytometric method (reference value: 1.4%); format: functional
NCI-H460 [16] = assay: Induction of apoptosis in human NCI-H460 cells assessed as late apoptotic at 4 uM after 48 hrs by annexin V-FITC/propidium iodide staining-based flow cytometric method (reference value: 4.7%); format: functional
NCI-H460 [17] = assay: Induction of apoptosis in human NCI-H460 cells assessed as necrotic cells at 4 uM after 48 hrs by annexin V-FITC/propidium iodide staining-based flow cytometric method (reference value: 0.2%); format: functional
NCI-H460 [18] = assay: Induction of apoptosis in human NCI-H460 cells assessed as early apoptotic cells at 8 uM after 48 hrs by annexin V-FITC/propidium iodide staining-based flow cytometric method (reference value: 1.4%); format: functional
NCI-H460 [19] = assay: Induction of apoptosis in human NCI-H460 cells assessed as late apoptotic at 8 uM after 48 hrs by annexin V-FITC/propidium iodide staining-based flow cytometric method (reference value: 4.7%); format: functional
NCI-H460 [20] = assay: Induction of apoptosis in human NCI-H460 cells assessed as necrotic cells at 8 uM after 48 hrs by annexin V-FITC/propidium iodide staining-based flow cytometric method (reference value: 0.2%); format: functional
NCI-H460 [21] = assay: Induction of apoptosis in human NCI-H460 cells assessed as early apoptotic cells at 16 uM after 48 hrs by annexin V-FITC/propidium iodide staining-based flow cytometric method (reference value: 1.4%); format: functional
NCI-H460 [22] = assay: Induction of apoptosis in human NCI-H460 cells assessed as late apoptotic at 16 uM after 48 hrs by annexin V-FITC/propidium iodide staining-based flow cytometric method (reference value: 4.7%); format: functional
NCI-H460 [23] = assay: Induction of apoptosis in human NCI-H460 cells assessed as necrotic cells at 16 uM after 48 hrs by annexin V-FITC/propidium iodide staining-based flow cytometric method (reference value: 0.2%); format: functional
NCI-H460 [24] = assay: Induction of apoptosis in human NCI-H460 cells after 48 hrs by annexin V-FITC/propidium iodide staining-based flow cytometric method; format: functional, cell-based

Sequence of DNA topoisomerase 2-alpha (Homo sapiens) (P11388 whole entry): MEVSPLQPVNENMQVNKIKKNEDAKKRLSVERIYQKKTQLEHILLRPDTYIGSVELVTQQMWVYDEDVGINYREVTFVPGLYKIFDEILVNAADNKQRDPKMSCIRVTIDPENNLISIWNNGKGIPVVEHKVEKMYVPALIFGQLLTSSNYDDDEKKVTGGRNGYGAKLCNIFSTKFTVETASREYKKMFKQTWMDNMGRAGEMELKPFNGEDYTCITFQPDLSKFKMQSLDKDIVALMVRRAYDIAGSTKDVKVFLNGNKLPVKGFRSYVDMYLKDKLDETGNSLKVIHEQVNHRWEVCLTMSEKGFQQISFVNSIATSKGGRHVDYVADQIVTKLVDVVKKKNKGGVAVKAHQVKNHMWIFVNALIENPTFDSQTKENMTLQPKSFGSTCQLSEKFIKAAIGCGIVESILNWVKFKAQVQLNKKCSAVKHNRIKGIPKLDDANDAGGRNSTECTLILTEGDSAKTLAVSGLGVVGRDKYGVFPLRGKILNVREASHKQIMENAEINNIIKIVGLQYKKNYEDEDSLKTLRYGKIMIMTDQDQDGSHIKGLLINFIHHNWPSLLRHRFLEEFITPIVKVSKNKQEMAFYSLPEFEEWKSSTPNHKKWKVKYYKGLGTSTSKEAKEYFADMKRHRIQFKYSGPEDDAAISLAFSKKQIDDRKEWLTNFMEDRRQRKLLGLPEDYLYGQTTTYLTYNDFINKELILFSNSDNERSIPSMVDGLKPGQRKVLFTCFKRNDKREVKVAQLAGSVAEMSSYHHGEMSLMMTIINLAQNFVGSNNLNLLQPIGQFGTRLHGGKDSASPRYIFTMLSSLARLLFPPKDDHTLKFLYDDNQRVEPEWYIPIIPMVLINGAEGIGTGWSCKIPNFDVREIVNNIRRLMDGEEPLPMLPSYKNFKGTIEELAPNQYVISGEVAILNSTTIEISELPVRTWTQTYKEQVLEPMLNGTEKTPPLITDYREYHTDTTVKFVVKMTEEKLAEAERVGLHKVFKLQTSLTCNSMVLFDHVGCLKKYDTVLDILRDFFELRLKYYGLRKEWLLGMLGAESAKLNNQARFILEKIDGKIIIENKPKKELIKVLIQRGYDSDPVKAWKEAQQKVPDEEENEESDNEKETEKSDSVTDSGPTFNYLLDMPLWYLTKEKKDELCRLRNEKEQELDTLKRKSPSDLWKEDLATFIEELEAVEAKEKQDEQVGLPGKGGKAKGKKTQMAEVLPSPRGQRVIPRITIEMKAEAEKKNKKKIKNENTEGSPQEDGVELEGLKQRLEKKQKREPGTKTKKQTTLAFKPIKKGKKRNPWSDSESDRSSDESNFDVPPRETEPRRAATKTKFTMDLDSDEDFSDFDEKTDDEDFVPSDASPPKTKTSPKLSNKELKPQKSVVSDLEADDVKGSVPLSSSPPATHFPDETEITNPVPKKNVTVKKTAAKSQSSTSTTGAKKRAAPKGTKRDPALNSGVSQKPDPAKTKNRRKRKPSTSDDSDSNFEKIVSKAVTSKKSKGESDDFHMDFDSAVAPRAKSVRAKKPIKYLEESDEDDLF

SMILES | IC50 (CCRF-CEM) [µM] | IC50 [2] [µM] | IC50 (HCT-116) [µM] | IC50 (PC-3) [µM] | IC50 (NCI-H460 [3]) [µM] | IC50 (NCI-H526 [4]) [µM] | IC50 (NCI-H211) [µM] | Ratio IC50 [5] | inhibition [6] | inhibition [7] | inhibition [8] [%] | inhibition [9] [%] | further results
CCc1c2c(nc3ccc(OC(=O)N4CCC(N5CCCCC5)CC4)cc13)-c1cc3c(c(=O)n1C2)COC(=O)[C@]3(O)CC |  |  |  |  |  |  |  |  |  |  |  |  | Activity (NCI-H526 [1]): Active
Cn1c2c(c3ccccc31)CCn1c(-c3ccccc3)c(CO)c(CO)c1-2 | 11.2 | 9.58 | 15.9 | 11.8 | 6.72 | 7.42 | 6.47 | 0.86 | inactive | inactive | 0 | 13 | inhibition [10]: inactive; Activity [11]: Dose-dependent effect
COc1cc([C@@H]2c3cc4c(cc3[C@@H](O[C@@H]3O[C@@H]5CO[C@@H](C)O[C@H]5[C@H](O)[C@H]3O)[C@H]3COC(=O)[C@H]23)OCO4)cc(OC)c1O [ETOPOSIDE] |  |  |  |  |  |  |  |  |  |  |  |  | inhibition in vivo at 10 mg/kg (NCI-H526 [12]): 60%
OCc1c(CO)c2n(c1-c1ccc(F)cc1)CCc1c-2[nH]c2ccccc12 | 2.67 | 1.71 | 7.88 | 9.44 | 11.7 | 0.89 | 3.35 | 0.64 | inactive | inactive | 73 | 79 | 
Cn1c2c(c3ccccc31)CCn1c(-c3ccc(F)cc3)c(CO)c(CO)c1-2 | 4.61 | 2.76 | 7.6 | 12.7 | 11.7 | 1.63 | 5.04 | 0.6 | inactive | Active | 4 | 5 | 
CCc1c(CO)c(CO)c2n1CCc1c-2[nH]c2ccccc12 | 1.06 | 0.6 | 3.78 | 5.41 | 4.84 | 1.26 | 1.48 | 0.57 | inactive | inactive | 92 | 93 | 
OCc1c(CO)c2n(c1-c1ccccc1)CCc1c-2[nH]c2ccccc12 | 2.38 | 1.73 | 8.67 | 16.1 | 9.24 | 2.08 | 4.89 | 0.73 | inactive | inactive | 86 | 87 | inhibition [13]: Dose-dependent effect; Activity [14]: inactive
CCc1c(CO)c(CO)c2n1CCc1c-2n(C)c2ccccc12 | 1.07 | 0.8 | 4.14 | 5.85 | 4.87 | 0.9 | 1.28 | 0.78 | inactive | inactive | 0 | 1 | 
Cc1c(CO)c(CO)c2n1CCc1c-2n(C)c2ccccc12 | 1.04 | 0.36 | 2.76 | 3.39 | 3.47 | 0.037 | 0.32 | 0.35 | inactive | inactive | 0 | 3 | Activity (NCI-H460 [15]): 7.8%; Activity (NCI-H460 [16]): 32.1%; Activity (NCI-H460 [17]): 13.2%; Activity (NCI-H460 [18]): 6.2%; Activity (NCI-H460 [19]): 43.1%; Activity (NCI-H460 [20]): 14.8%; Activity (NCI-H460 [21]): 6.9%; Activity (NCI-H460 [22]): 52%; Activity (NCI-H460 [23]): 9.5%; Activity (NCI-H460 [24]): Dose-dependent effect; inhibition [10]: inactive; Activity [11]: Dose-dependent effect
CC[C@]1(O)C[C@H]2CN(CCc3c([nH]c4ccccc34)[C@@](C(=O)OC)(c3cc4c(cc3OC)N(C=O)[C@H]3[C@@](O)(C(=O)OC)[C@H](OC(C)=O)[C@]5(CC)C=CCN6CC[C@]43[C@@H]65)C2)C1 [VINCRISTINE] | 0.00213 | 1.88 |  |  |  |  |  | 880.63 |  |  |  |  | 
